These results are taken from US12428415B2, “Matriptase 2 inhibitors and uses thereof” (Disc Medicine, Inc., priority 2018, dated 2025).

The target in the assay is T1, Human Recombinant Matriptase 2 (Homo sapiens, UniProt Q8IU80).
T1 construct: purchased Enzo Life Sciences (an in-house preparation was also used) ALX-201-752-1
T1 sequence (Q8IU80 1-811): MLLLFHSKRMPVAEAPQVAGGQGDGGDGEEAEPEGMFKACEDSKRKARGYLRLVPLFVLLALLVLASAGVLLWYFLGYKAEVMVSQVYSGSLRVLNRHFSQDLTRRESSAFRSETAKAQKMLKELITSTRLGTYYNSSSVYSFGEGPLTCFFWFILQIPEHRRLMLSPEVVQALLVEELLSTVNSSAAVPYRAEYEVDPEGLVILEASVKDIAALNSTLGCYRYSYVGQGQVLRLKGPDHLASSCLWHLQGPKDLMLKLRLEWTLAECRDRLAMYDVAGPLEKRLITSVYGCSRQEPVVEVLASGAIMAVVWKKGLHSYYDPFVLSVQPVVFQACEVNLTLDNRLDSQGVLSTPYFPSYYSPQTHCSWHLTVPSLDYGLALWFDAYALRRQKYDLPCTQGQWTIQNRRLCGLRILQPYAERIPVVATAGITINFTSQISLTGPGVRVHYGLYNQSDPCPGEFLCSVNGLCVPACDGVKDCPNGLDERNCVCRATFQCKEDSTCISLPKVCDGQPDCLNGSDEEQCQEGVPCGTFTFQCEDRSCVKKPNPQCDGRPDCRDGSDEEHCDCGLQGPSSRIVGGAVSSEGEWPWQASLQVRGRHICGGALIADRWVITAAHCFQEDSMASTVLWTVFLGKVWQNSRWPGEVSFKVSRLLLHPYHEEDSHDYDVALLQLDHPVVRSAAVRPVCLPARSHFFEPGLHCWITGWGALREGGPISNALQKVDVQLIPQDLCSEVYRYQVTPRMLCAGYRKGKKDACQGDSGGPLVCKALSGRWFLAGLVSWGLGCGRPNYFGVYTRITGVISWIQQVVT
Kind of assay: Matriptase 2 fluorescence based inhibition assay, Method B (50 mM TRIS pH 7.5, 150 mM NaCl, 0.01% gelatin). To be noted: 1 uM compound, Assay Used = B (Method B); for inhibition at 1 µM: read-out: Mar-2 % inhibition at 1 uM. Type of assay: biochemical. The method in brief:
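Fluorogenic substrate Boc-Gln-Ala-Arg-7-amido-4-methylcoumarin (100 μM) cleavage read at Ex 360/Em 480 nm 60 min after addition, following 30 min enzyme–compound preincubation at 25° C. Enzyme was 7 nM commercial or 15 nM in-house; DMSO 1%. IC50s fitted by non-linear sigmoidal regression.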

As to `CC(C)COC(=O)NC(=N)c1ccc2cc(C(=O)O)n(Cc3cccc4ccccc34)c2n1` [Compound I-674], the inhibition at 1 µM was 25 to 50%. Still for that read-out and setting: the result for `CCOC(=O)c1cc2ccc(/C(N)=N/O)cc2n1Cc1cccc2ccccc12` [Compound I-675, Ethyl (Z)-6-(N′-hydroxycarbamimidoyl)-1-(naphthalen-1-ylmethyl)-1H-indole-2-carboxylate] reads 0 to 25%; that for `CCOC(=O)c1cc2ccc(C(=N)NC(=O)OCC(C)C)nc2n1Cc1cccc2ccccc12` [Compound I-676], 0 to 25%; that for `N=C(N)c1ccc2cc(C(=O)O)n(-c3cc(CO)c4ccccc4c3)c2c1` [Compound I-677], 50 to 75%. In the case of `N=C(N)c1ccc2cc(C(=O)O)n(Cc3cc(S(=O)(=O)c4ccccc4)cc4ccccc34)c2c1` [Compound I-678], the inhibition at 1 µM lay within 50 to 75%. Consider `N=C(N)c1ccc2cc(C(=O)O)n(Cc3ccc(Oc4ccccc4)c4ccccc34)c2n1` [Compound I-679], for which the inhibition at 1 µM lay within 25 to 50%. In the case of `N=C(N)c1ccc2cc(C(=O)O)n(Cc3cccc4ccc(Oc5ccccc5)cc34)c2c1` [Compound I-680], the inhibition at 1 µM fell in the range of 25 to 50%. Take `N=C(N)c1ccc2cc(C(=O)N[C@H]3CC[C@H](N)CC3)n(-c3cc(CO)c4ccccc4c3)c2c1` [Compound I-681]: the inhibition at 1 µM lay in the range of 75 to 100%. The same measure, in the same setting: next, `N=C(N)c1ccc2cc(C(=O)O)n(Cc3cc(OC4CCCCC4)cc4ccccc34)c2c1` [Compound I-682]: 25 to 50%; `CC1CCCCN1CCCNC(=O)c1cc2ccc(C(=N)N)cc2n1Cc1cccc2ccccc12` (stereo not drawn) [Compound I-683]: 50 to 75%. Regarding `CO/N=C(\N)c1ccc2c(c1)c(Cc1cccc3ccccc13)c(C(=O)O)n2C` [Compound I-684], the inhibition at 1 µM fell in the range of 0 to 25%. For `CCn1c(C(=O)O)c(Cc2cccc3ccccc23)c2cc(C(=N)N)ccc21` [Compound I-685], the inhibition at 1 µM is 50 to 75%. Turning to `COc1cccc(Oc2cc(Cn3c(C(=O)O)cc4ccc(C(=N)N)cc43)c3ccccc3c2)c1` [Compound I-686], the inhibition at 1 µM lay within 50 to 75%. On to `N=C(N)c1ccc2cc(C(=O)N[C@H]3CC[C@H](N)CC3)n(Cc3cncc4ccccc34)c2c1` [Compound I-687], for which the “Mar-2 % inhibition at 1 uM” value is “C (C represents 50%≤I≤75%)”.

For `COc1ccc(Oc2cc(Cn3c(C(=O)O)cc4ccc(C(=N)N)cc43)c3ccccc3c2)cc1` [Compound I-688], the inhibition at 1 µM fell in the range of 50 to 75%. Regarding `Cn1c(C(=O)O)c(Cc2cccc3ccccc23)c2cc(C(=N)N)ccc21` [Compound I-689], the inhibition at 1 µM lay within 75 to 100%. In the case of `N=C(N)c1cc2c(cn1)cc(C(=O)NC1CCC(N)CC1)n2Cc1cccc2ccccc12` (stereo not drawn) [Compound I-690], the inhibition at 1 µM fell in the range of 75 to 100%. As for `N#Cc1ccc(Cn2c(C(=O)N[C@H]3CC[C@H](N)CC3)cc3ccc(C(=N)N)cc32)c2ccccc12` [Compound I-691], the inhibition at 1 µM fell in the range of 75 to 100%.

Regarding `N=C(N)c1ccc2cc(C(=O)O)n(Cc3cc(N4CCOCC4=O)cc4ccccc34)c2c1` [Compound I-692], the inhibition at 1 µM fell in the range of 0 to 25%. On to `N=C(N)c1ccc2cc(C(=O)O)n(Cc3cc(Oc4ncccn4)cc4ccccc34)c2c1` [Compound I-693], for which the inhibition at 1 µM was in the range of 75 to 100%.

`N=C(N)c1ccc2cc(C(=O)N[C@H]3CC[C@H](N)CC3)n(Cc3cc(O)cc4ccccc34)c2c1` [Compound I-694]: the inhibition at 1 µM was 75 to 100%. Same read-out and setting: the result for `N=C(N)c1ccc2cc(C(=O)O)n(Cc3cc(O)cc4ccccc34)c2c1` [Compound I-695, 6-carbamimidoyl-1-((3-hydroxynaphthalen-1-yl)methyl)-1H-indole-2-carboxylic Acid] reads 75 to 100%. With `COC(=O)c1cc2ccc(C(=N)N)cc2n1Cc1cc(O)cc2ccccc12` [Compound I-696], the inhibition at 1 µM lay within 50 to 75%. Turning to `CO/N=C(\N)c1ccc2cc(C(=O)OC)n(Cc3cccc4ccccc34)c2n1` [Compound I-697, Methyl (Z)-6-(N′-methoxycarbamimidoyl)-1-(naphthalen-1-ylmethyl)-1H-pyrrolo[2,3-b]pyridine-2-carboxylate], the inhibition at 1 µM lay within 0 to 25%. In the case of `CO/N=C(/N)c1ccc2cc(C(=O)O)n(Cc3cccc4ccccc34)c2c1` [Compound I-699, (E)-6-(N′-methoxycarbamimidoyl)-1-(naphthalen-1-ylmethyl)-1H-indole-2-carboxylic Acid], the inhibition at 1 µM was 0 to 25%. As for `COc1ccccc1Oc1cc(Cn2c(C(=O)N[C@H]3CC[C@H](N)CC3)cc3ccc(C(=N)N)cc32)c2ccccc2c1` [Compound I-700], the inhibition at 1 µM is 50 to 75%. The same measure, in the same setting: the result for `N=C(N)c1ccc2cc(C(=O)N[C@H]3CC[C@H](N)CC3)n(Cc3ccc(Oc4ccccc4)c4ccccc34)c2c1` [Compound I-701] reads 75 to 100%; that for `N=C(N)c1ccc2cc(C(=O)N[C@H]3CC[C@H](N)CC3)n(Cc3cc(N4CCOCC4=O)cc4ccccc34)c2c1` [Compound I-702], 25 to 50%; that for `N=C(N)c1ccc2cc(C(=O)O)n(Cc3csc4ccccc34)c2c1` [Compound I-703], 50 to 75%. `CO/N=C(\N)c1ccc2cc(C(=O)O)n(Cc3cccc4ccccc34)c2n1` [Compound I-704, (Z)-6-(N′-methoxycarbamimidoyl)-1-(naphthalen-1-ylmethyl)-1H-pyrrolo[2,3-b]pyridine-2-carboxylic Acid]: the inhibition at 1 µM lay in the range of 0 to 25%. Take `N=C(N)c1ccc2cc(C(=O)O)n(Cc3ccc(Oc4ccccc4)c4ccccc34)c2c1` [Compound I-705]: the inhibition at 1 µM is 50 to 75%. Take `N=C(N)c1cc2c(cn1)cc(C(=O)O)n2Cc1cccc2ccccc12` [Compound I-706]: the inhibition at 1 µM is 25 to 50%. Still for that read-out and setting: the result for `N=C(N)c1ccc2cc(C(=O)N[C@H]3CC[C@H](N)CC3)n(Cc3cccc4cc(Oc5ccccc5)ccc34)c2c1` [Compound I-707] reads 75 to 100%.

As to `COC(=O)c1cc2ccc(C(=N)N)cc2n1Cc1csc2ccccc12` [Compound I-708], the inhibition at 1 µM was in the range of 25 to 50%. As for `COc1ccccc1Oc1cc(Cn2c(C(=O)O)cc3ccc(C(=N)N)cc32)c2ccccc2c1` [Compound I-709], the inhibition at 1 µM is 25 to 50%. Regarding `N=C(N)c1ccc2cc(-c3nnnn3CCO)n(Cc3cccc4ccccc34)c2c1` [Compound I-710], the inhibition at 1 µM lay within 75 to 100%.

As to `N=C(N)c1ccc2cc(C(=O)O)n(Cc3cc(Oc4ccc(-c5ccccc5)cc4)cc4ccccc34)c2c1` [Compound I-711], the inhibition at 1 µM was in the range of 25 to 50%.

As for `CCOC(=O)NC(=N)c1ccc2cc(C(=O)O)n(Cc3cccc4ccccc34)c2c1` [Compound I-712], the inhibition at 1 µM lay within 0 to 25%. Regarding `N=C(N)c1cnc2cc(C(=O)O)n(Cc3cccc4ccccc34)c2c1` [Compound I-713], the inhibition at 1 µM fell in the range of 0 to 25%. Take `Cc1cnc(-c2cc3ccc(C(=N)N)cc3n2Cc2cccc3ccccc23)[nH]1` [Compound I-714]: the inhibition at 1 µM lay within 75 to 100%. Turning to `N=C(N)c1ccc2cc(C(=O)N[C@H]3CC[C@H](N)CC3)n(Cc3cc(Oc4ccc(-c5ccccc5)cc4)cc4ccccc34)c2c1` [Compound I-715], the inhibition at 1 µM was 0 to 25%. Same read-out and setting: the result for `N=C(N)c1ccc2cc(CC(=O)O)n(Cc3cccc4ccccc34)c2c1` [Compound I-716, 2-(6-carbamimidoyl-1-(naphthalen-1-ylmethyl)-1H-indol-2-yl)acetic Acid] reads 75 to 100%.

Broadly, the inhibition is the relative decrease from the control value, in per cent.
